Assay: xn = mol fraction of the nth substance listed

CCCCBr + CC(C)CO
viscosity [mPa·s], 101.33 kPa
Conditions	x2 = 0.101	x2 = 0.2014	x2 = 0.308	x2 = 0.4025	x2 = 0.5066	x2 = 0.61	x2 = 0.7006	x2 = 0.8004	x2 = 0.8984
298.15 K	0.626	0.671	0.743	0.83	0.98	1.196	1.436	1.845	2.449
308.15 K	0.549	0.576	0.624	0.682	0.783	0.934	1.1	1.387	1.807
318.15 K	0.492	0.512	0.555	0.593	0.664	0.774	0.895	1.098	1.389

COCCO + CC(C)CO
Conditions	viscosity [mPa·s]
303.15 K, 101.3 kPa, x1 = 0.0962	2.478
303.15 K, 101.3 kPa, x1 = 0.2087	2.104
303.15 K, 101.3 kPa, x1 = 0.328	1.823
303.15 K, 101.3 kPa, x1 = 0.433	1.653
303.15 K, 101.3 kPa, x1 = 0.5976	1.493
303.15 K, 101.3 kPa, x1 = 0.6411	1.468
303.15 K, 101.3 kPa, x1 = 0.7261	1.431
303.15 K, 101.3 kPa, x1 = 0.8566	1.398
303.15 K, 101.3 kPa, x1 = 0.9229	1.391
308.15 K, 101.33 kPa, x1 = 0.1438	1.902
308.15 K, 101.33 kPa, x1 = 0.2792	1.664
308.15 K, 101.33 kPa, x1 = 0.3329	1.595
308.15 K, 101.33 kPa, x1 = 0.505	1.422
308.15 K, 101.33 kPa, x1 = 0.6648	1.32
308.15 K, 101.33 kPa, x1 = 0.7249	1.292
308.15 K, 101.33 kPa, x1 = 0.7936	1.264
308.15 K, 101.33 kPa, x1 = 0.8977	1.231

COCCO + CC(C)O
303.15 K, 101.3 kPa
Conditions	viscosity [mPa·s]
x1 = 0.0989	1.54
x1 = 0.1681	1.426
x1 = 0.3537	1.24
x1 = 0.388	1.222
x1 = 0.5422	1.196
x1 = 0.5877	1.202
x1 = 0.7821	1.268
x1 = 0.8235	1.288
x1 = 0.8851	1.324

CCCC(C)O (stereo not drawn) + CC(C)OC(C)C
viscosity [mPa·s], 100 kPa
Conditions	x2 = 0.0801	x2 = 0.1597	x2 = 0.2402	x2 = 0.3503	x2 = 0.4399	x2 = 0.5598	x2 = 0.6493	x2 = 0.7372	x2 = 0.8487	x2 = 0.9379
293.15 K	3.43	2.94	2.52	2.08	1.76	1.386	1.13	0.9	0.64	0.45
298.15 K	2.87	2.44	2.1	1.74	1.48	1.176	0.969	0.783	0.57	0.42
303.15 K	2.42	2.06	1.78	1.49	1.286	1.04	0.864	0.705	0.518	0.389
308.15 K	2.04	1.74	1.5	1.26	1.09	0.89	0.75	0.62	0.47	0.36
313.15 K	1.71	1.45	1.26	1.06	0.922	0.755	0.64	0.536	0.414	0.33
318.15 K	1.42	1.2	1.05	0.89	0.78	0.642	0.547	0.467	0.375	0.306
323.15 K	1.19	1.02	0.89	0.76	0.667	0.554	0.477	0.41	0.33	0.28

Reference: the CheMixHub viscosity set
